Results from article PMC11167047 (Cell Death Discovery, 2024).

Legend:
Experiment in all cases: kinome screen (33PanQinase)
Type in all cases: biochemical
BRSK2 = target: T1, BRSK2 (Homo sapiens, UniProt Q8IWQ3)
T1 construct: purchased Reaction Biology Europe GmbH (formerly ProQinase)
T1 sequence (Q8IWQ3 1-736): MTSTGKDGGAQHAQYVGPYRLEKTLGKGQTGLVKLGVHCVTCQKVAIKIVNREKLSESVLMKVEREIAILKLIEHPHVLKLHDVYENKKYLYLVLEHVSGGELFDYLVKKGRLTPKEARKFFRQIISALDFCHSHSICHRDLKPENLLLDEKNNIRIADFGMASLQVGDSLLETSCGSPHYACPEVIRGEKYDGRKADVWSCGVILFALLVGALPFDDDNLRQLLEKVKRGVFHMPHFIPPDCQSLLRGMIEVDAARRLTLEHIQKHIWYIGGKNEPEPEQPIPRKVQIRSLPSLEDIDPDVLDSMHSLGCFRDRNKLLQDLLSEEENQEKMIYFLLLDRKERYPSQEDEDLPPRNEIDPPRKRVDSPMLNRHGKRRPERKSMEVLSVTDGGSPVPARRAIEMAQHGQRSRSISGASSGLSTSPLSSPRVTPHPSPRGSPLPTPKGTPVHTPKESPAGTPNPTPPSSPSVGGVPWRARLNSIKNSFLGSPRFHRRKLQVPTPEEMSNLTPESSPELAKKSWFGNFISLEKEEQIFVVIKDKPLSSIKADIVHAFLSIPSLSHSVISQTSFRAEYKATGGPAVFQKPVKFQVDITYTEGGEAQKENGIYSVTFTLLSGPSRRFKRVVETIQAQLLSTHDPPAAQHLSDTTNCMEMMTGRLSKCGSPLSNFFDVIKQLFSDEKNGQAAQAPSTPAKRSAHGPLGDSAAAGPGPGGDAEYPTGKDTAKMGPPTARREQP
Procedure: (§1) The Kinome Screening was performed by Reaction Biology Europe GmbH (http://reactionbiology.com; Freiburg i. Br., Germany).

TRKC = target: T2, TRKC (Homo sapiens, UniProt Q16288)
T2 construct: purchased Reaction Biology Europe GmbH (formerly ProQinase)
Procedure: as §1

ERK1 = target: T3, ERK1 (Homo sapiens, UniProt P27361)
T3 construct: purchased Reaction Biology Europe GmbH (formerly ProQinase)
Procedure: as §1

CK1α1 = target: T4, CK1α1 (Homo sapiens, UniProt P48729)
T4 construct: purchased Reaction Biology Europe GmbH (formerly ProQinase)
Procedure: as §1

TSSK1 = target: T5, TSSK1 (Homo sapiens, UniProt Q9BXA7)
T5 construct: purchased Reaction Biology Europe GmbH (formerly ProQinase)
T5 sequence (Q9BXA7 1-367): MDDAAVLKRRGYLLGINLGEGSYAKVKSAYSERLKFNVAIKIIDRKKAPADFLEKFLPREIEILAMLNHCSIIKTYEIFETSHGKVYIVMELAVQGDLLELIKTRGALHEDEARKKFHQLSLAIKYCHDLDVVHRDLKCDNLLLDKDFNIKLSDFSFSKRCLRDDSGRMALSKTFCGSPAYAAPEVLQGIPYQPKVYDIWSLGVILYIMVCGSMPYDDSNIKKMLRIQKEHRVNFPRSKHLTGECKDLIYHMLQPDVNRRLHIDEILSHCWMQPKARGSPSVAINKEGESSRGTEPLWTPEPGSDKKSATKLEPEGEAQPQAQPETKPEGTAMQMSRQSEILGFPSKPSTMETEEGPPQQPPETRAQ
Procedure: as §1

PIM1 = target: T6, PIM1 (Homo sapiens, UniProt P11309)
T6 construct: purchased Reaction Biology Europe GmbH (formerly ProQinase)
Procedure: as §1

IGF1R = target: T7, IGF1R (Homo sapiens, UniProt P08069)
T7 construct: purchased Reaction Biology Europe GmbH (formerly ProQinase)
Procedure: as §1

PLK3 = target: T8, PLK3 (Homo sapiens, UniProt Q9H4B4)
T8 construct: purchased Reaction Biology Europe GmbH (formerly ProQinase)
Procedure: as §1

IRAK1 = target: T9, IRAK1 (Homo sapiens, UniProt P51617)
T9 construct: purchased Reaction Biology Europe GmbH (formerly ProQinase)
Procedure: as §1

YES = target: T10, YES (Homo sapiens, UniProt P07947)
T10 construct: purchased Reaction Biology Europe GmbH (formerly ProQinase)
Procedure: as §1

MAP3K9 = target: T11, MAP3K9 (Homo sapiens, UniProt P80192)
T11 construct: purchased Reaction Biology Europe GmbH (formerly ProQinase)
Procedure: as §1

PAK6 = target: T12, PAK6 (Homo sapiens, UniProt Q9NQU5)
T12 construct: purchased Reaction Biology Europe GmbH (formerly ProQinase)
Procedure: as §1

GRK5 = target: T13, GRK5 (Homo sapiens, UniProt P34947)
T13 construct: purchased Reaction Biology Europe GmbH (formerly ProQinase)
Procedure: as §1

T12 sequence (Q9NQU5 whole entry): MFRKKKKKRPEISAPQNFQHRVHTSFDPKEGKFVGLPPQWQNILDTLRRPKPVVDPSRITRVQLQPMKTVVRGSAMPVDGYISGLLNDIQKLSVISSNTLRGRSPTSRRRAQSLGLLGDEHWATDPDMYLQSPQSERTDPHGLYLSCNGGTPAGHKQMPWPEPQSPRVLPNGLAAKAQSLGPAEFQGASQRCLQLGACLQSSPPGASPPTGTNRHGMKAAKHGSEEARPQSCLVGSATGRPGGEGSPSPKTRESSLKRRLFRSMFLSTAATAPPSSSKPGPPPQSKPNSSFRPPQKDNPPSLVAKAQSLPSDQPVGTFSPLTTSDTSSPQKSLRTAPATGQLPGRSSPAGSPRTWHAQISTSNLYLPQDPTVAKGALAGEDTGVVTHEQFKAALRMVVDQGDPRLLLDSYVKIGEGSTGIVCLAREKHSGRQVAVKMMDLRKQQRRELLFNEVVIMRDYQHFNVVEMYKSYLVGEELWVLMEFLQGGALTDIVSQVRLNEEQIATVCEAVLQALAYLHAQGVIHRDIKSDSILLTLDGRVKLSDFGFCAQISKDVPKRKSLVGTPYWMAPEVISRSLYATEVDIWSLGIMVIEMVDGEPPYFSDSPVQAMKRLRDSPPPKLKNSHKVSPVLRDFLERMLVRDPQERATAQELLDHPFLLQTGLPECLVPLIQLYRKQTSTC
T7 sequence (P08069 31-1367): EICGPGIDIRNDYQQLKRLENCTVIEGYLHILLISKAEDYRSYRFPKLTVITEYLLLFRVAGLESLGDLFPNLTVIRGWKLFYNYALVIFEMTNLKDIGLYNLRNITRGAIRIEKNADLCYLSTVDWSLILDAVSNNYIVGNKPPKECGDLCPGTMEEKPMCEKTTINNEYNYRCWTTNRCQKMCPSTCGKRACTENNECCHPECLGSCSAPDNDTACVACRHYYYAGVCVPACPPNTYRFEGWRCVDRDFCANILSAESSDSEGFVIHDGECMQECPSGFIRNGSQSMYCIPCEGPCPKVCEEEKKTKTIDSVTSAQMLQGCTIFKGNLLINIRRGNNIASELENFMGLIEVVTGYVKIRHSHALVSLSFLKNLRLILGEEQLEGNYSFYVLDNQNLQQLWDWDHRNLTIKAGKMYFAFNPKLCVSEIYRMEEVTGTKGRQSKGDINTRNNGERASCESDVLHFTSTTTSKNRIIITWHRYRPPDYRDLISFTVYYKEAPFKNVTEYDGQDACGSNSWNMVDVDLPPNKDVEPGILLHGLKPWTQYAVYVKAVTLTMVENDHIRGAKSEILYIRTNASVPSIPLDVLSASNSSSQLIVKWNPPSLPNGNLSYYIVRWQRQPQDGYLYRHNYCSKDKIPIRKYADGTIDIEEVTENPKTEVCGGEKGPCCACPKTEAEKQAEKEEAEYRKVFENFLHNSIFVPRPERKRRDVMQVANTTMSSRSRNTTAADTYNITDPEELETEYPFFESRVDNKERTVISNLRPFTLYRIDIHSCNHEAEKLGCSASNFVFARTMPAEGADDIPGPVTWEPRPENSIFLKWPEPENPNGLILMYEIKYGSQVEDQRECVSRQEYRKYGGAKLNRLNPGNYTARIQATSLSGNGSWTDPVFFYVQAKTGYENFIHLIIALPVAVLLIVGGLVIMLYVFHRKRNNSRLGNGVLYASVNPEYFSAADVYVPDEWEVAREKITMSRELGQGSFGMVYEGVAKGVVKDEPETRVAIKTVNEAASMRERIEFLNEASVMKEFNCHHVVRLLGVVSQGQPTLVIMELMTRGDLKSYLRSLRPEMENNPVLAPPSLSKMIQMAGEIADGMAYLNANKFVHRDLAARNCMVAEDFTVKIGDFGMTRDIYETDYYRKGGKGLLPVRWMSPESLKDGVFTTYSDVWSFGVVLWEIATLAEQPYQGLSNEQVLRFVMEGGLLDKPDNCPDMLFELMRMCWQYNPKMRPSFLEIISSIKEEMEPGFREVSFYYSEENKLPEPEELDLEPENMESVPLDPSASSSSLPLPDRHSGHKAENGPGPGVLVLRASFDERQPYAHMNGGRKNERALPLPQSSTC
T11 sequence (P80192 whole entry): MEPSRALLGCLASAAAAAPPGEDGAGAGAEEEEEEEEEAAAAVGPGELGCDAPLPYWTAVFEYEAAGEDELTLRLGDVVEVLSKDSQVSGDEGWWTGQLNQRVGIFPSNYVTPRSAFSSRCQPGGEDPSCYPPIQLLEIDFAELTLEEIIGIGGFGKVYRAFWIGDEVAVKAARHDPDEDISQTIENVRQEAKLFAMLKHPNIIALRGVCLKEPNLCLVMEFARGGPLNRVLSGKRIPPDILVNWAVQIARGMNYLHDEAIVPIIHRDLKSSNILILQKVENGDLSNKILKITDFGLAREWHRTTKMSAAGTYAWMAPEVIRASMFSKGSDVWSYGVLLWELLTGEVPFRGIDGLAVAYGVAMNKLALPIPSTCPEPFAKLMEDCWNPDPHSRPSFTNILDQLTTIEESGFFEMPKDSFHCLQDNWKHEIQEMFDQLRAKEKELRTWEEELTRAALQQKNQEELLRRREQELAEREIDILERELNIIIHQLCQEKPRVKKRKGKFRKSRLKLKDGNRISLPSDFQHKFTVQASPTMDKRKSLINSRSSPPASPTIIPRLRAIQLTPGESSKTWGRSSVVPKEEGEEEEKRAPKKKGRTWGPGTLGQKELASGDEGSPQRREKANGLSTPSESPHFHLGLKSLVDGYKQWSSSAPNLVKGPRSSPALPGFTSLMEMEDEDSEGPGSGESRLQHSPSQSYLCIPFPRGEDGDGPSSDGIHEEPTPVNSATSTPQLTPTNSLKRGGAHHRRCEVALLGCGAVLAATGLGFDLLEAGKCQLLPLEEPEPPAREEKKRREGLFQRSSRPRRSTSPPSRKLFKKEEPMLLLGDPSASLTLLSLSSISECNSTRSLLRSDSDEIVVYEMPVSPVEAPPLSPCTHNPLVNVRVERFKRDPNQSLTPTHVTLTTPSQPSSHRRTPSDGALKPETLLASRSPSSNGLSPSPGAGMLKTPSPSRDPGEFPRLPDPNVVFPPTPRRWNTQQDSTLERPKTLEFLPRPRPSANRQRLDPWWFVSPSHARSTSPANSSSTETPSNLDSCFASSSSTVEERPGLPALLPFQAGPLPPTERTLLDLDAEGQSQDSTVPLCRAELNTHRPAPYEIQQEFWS
T4 sequence (P48729 whole entry): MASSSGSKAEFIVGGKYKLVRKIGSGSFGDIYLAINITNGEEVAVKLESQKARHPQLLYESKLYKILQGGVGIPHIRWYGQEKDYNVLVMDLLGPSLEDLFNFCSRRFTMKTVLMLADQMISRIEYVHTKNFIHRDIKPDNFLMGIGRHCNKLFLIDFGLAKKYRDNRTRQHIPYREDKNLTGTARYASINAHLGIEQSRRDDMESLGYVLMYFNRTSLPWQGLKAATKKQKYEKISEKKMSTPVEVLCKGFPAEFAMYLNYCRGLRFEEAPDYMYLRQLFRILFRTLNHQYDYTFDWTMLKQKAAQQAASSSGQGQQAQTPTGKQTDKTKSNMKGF
T8 sequence (Q9H4B4 whole entry): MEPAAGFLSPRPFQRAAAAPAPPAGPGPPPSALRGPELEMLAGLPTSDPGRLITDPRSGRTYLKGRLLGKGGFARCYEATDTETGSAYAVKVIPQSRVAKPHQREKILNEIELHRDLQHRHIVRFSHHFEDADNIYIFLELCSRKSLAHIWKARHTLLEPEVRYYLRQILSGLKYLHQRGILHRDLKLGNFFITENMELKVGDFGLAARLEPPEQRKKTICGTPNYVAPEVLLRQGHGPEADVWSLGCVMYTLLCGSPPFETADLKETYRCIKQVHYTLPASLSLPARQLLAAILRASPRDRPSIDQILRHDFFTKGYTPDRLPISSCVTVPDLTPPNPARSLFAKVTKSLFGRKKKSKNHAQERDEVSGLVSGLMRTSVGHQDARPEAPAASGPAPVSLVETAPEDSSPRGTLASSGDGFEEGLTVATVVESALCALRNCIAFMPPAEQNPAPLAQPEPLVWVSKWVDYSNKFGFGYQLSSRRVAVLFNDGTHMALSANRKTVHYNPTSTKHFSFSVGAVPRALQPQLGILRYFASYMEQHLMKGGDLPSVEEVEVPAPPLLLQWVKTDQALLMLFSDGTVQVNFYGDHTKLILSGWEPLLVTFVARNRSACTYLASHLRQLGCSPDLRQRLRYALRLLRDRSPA
T10 sequence (P07947 whole entry): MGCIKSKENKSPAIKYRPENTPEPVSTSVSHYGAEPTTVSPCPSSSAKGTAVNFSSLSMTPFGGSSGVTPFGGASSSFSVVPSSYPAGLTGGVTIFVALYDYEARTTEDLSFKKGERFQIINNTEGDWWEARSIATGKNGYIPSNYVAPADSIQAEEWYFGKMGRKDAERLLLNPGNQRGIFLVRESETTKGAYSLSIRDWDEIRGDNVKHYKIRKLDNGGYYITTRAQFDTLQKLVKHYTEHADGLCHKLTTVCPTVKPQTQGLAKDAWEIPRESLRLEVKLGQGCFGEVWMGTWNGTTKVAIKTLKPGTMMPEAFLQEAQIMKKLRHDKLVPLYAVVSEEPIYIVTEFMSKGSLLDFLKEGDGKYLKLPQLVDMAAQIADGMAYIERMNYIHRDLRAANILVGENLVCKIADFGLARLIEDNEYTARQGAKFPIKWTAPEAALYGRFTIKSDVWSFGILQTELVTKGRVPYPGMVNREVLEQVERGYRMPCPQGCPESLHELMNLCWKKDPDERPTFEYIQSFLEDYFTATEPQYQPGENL
T3 sequence (P27361 whole entry): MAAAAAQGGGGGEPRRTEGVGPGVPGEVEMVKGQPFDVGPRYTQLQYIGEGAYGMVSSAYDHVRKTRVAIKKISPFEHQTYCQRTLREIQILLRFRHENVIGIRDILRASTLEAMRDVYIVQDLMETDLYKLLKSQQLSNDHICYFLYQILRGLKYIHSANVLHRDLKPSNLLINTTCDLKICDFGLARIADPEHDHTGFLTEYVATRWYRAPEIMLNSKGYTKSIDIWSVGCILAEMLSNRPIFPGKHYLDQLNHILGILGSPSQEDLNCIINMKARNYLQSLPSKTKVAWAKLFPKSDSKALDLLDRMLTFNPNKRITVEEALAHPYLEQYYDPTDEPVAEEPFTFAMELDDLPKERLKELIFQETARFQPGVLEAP

SMILES | residual kinase activity (BRSK2; 0.3 µM) | residual kinase activity (TRKC; 0.3 µM) | residual kinase activity (ERK1; 0.3 µM) | residual kinase activity (CK1α1; 0.3 µM) | residual kinase activity (TSSK1; 0.3 µM) | residual kinase activity (PIM1; 0.3 µM) | residual kinase activity (IGF1R; 0.3 µM) | residual kinase activity (PLK3; 0.3 µM) | residual kinase activity (IRAK1; 0.3 µM) | residual kinase activity (YES; 0.3 µM) | residual kinase activity (MAP3K9; 0.3 µM) | residual kinase activity (PAK6; 0.3 µM) | residual kinase activity (GRK5; 0.3 µM) | also measured
c1ccc(CNc2cc(-c3c[nH]c4ncccc34)ccn2)cc1 [meriolin 36] | 112 % of control | 18 % of control | 72 % of control | 110 % of control | 50 % of control | 55 % of control | 128 % of control | 97 % of control | 49 % of control | 65 % of control | 57 % of control | 54 % of control | 119 % of control | residual kinase activity (BRSK2; 3 µM): 61 % of control; residual kinase activity (TRKC; 3 µM): 2 % of control; residual kinase activity (ERK1; 3 µM): 37 % of control; residual kinase activity (CK1α1; 3 µM): 51 % of control; residual kinase activity (TSSK1; 3 µM): 15 % of control; residual kinase activity (PIM1; 3 µM): 14 % of control; residual kinase activity (IGF1R; 3 µM): 83 % of control; residual kinase activity (PLK3; 3 µM): 87 % of control; residual kinase activity (IRAK1; 3 µM): 9 % of control; residual kinase activity (YES; 3 µM): 19 % of control; residual kinase activity (MAP3K9; 3 µM): 12 % of control; residual kinase activity (PAK6; 3 µM): 14 % of control; residual kinase activity (GRK5; 3 µM): 74 % of control
COc1ccnc2[nH]cc(-c3cc(N)nc(N)c3)c12 [meriolin 16] | 92 % of control | 36 % of control | 96 % of control | 93 % of control | 83 % of control | 40 % of control | 99 % of control | 92 % of control | 76 % of control | 90 % of control | 80 % of control | 76 % of control | 91 % of control | residual kinase activity (BRSK2; 0.03 µM): 111 % of control; residual kinase activity (TRKC; 0.03 µM): 72 % of control; residual kinase activity (ERK1; 0.03 µM): 111 % of control; residual kinase activity (CK1α1; 0.03 µM): 129 % of control; residual kinase activity (TSSK1; 0.03 µM): 109 % of control; residual kinase activity (PIM1; 0.03 µM): 77 % of control; residual kinase activity (IGF1R; 0.03 µM): 116 % of control; residual kinase activity (PLK3; 0.03 µM): 95 % of control; residual kinase activity (IRAK1; 0.03 µM): 95 % of control; residual kinase activity (YES; 0.03 µM): 100 % of control; residual kinase activity (MAP3K9; 0.03 µM): 95 % of control; residual kinase activity (PAK6; 0.03 µM): 88 % of control; residual kinase activity (GRK5; 0.03 µM): 118 % of control
